Measurements as given in PubChem BioAssay (NCI).
Several values for one entry are separate records, joined by “and”; a condition that tells them apart may be missing. Equal values may be shown once.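 Cultured in 96-well plates, cells were exposed to test compound for 48 hours across five concentrations. At the GI50, growth is halved. At the TGI there is no net growth.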

Legend:
Assay in all cases: NCI-60 cell line screen, 48 h
[1] = system: HCT-15 colon
[2] = system: TK-10 renal
[3] = system: NCI-H522 lung
[4] = system: CAKI-1 renal
[5] = system: HCT-116 colon
[6] = system: HCC-2998 colon
[7] = system: SNB-19 CNS
[8] = system: M14 melanoma
[9] = system: EKVX NSCLC
[10] = system: RXF 393 renal

Structure (SMILES) | GI50 [1] | TGI [1] | GI50 [2] | TGI [2] | GI50 [3] | TGI [3] | GI50 [4] | TGI [4] | GI50 [5] | TGI [5] | GI50 [6] | TGI [6] | GI50 [7] | TGI [7] | GI50 [8] | TGI [8] | GI50 [9] | TGI [9] | TGI [10] | GI50 [10]
O=C(NCCNC1=CC(=O)c2nc3ccccc3c3ccnc1c23)c1cnccn1 | 38 µM | > 100 µM | 10.3 µM | 37.2 µM | 44 µM | > 100 µM | 15.8 µM | 50.9 µM | 19.8 µM | > 100 µM | 27.6 µM | > 100 µM | 42.2 µM | > 100 µM | 40.8 µM | > 100 µM | > 100 µM | > 100 µM |  | 
COc1cc([C@H]2c3cc4c(cc3[C@H](NCc3ccc(F)cc3)C3COC(=O)[C@H]32)OCO4)cc(OC)c1O (stereo partly specified) |  | 16.2 µM |  | 41.4 µM |  | 9.48 µM |  |  |  | 23.1 µM |  | 23.8 µM |  | 51.2 µM |  | 13.6 µM |  | 28.8 µM | 42.8 µM | 
CC(C)(C)c1cnc(CSc2cnc(NC(=O)C3CCNCC3)s2)o1 | 4.76 µM and > 6.31 µM | > 100 µM | 0.62 µM and 0.794 µM | 5.23 µM and > 10 µM | 0.189 µM and 0.175 µM | 0.494 µM and 0.565 µM | 3.89 µM and > 3 µM | 32.7 µM and > 10 µM | 0.102 µM and 0.0797 µM | > 100 µM | 0.27 µM and 0.243 µM | 3.79 µM and 1.67 µM | 0.244 µM and 0.259 µM | > 100 µM | 0.441 µM and 0.564 µM | 2.87 µM and 2.61 µM | 0.427 µM | > 10 µM | 0.354 µM and 0.509 µM | 0.124 µM and 0.157 µM
O=C(Nc1c(Cl)cc([N+](=O)[O-])cc1Cl)C(=O)C(C(=O)c1ccncc1)C1OC(=O)c2ccccc21 (stereo unspecified) |  | > 100 µM |  | > 100 µM |  | > 100 µM |  | > 100 µM |  | > 100 µM |  | > 100 µM |  | > 100 µM |  | > 100 µM |  | > 100 µM | > 100 µM | 
COc1cc2c(c(OC)c1OC)-c1ccc(SC)c(=O)cc1C(CC(=O)Oc1ccccc1F)C2 (stereo unspecified) |  | 0.248 µM |  | > 7.5 µM |  | 0.0307 µM |  | > 7.5 µM |  | 0.0644 µM |  | 0.373 µM |  | > 7.5 µM |  | 0.908 µM |  |  |  | 
C#CCN(CCCOc1ccc(Cl)cc1Cl)CCCSC(=O)CCCCCN1/C(=C\C=C2/CCCC(/C=C/C3=[N+](CCCCCC(=O)[O-])c4ccccc4C3(C)C)=C2Cl)C(C)(C)c2ccccc21 | 4.12 µM | 21.9 µM | 2.21 µM | 5.17 µM | 1.16 µM | 3.34 µM |  |  | 1.63 µM | 3.14 µM | 1.78 µM | 3.51 µM | 1.12 µM | 3.64 µM | 1.61 µM | 3.36 µM | 2.42 µM | 12.8 µM | 3.37 µM | 1.66 µM
COc1ccc(C2NC(c3ccc(OC)cc3)C(C)C(=O)C2C)cc1 (stereo unspecified) |  | > 100 µM |  | > 100 µM |  | > 100 µM |  |  |  | > 100 µM |  | > 100 µM |  | > 100 µM |  | > 100 µM |  | > 100 µM | > 100 µM | 
CC(=O)O[C@H]1C(=O)[C@@]2(C)C([C@H](OC(=O)c3ccccc3)[C@]3(O)C[C@H](OC(=O)[C@H](O)[C@@H](NC(=O)c4ccc(Cl)cc4)c4ccccc4)C(C)=C1C3(C)C)C1(OC(C)=O)CO[C@@H]1C[C@@H]2O (stereo partly specified) | 0.2 µM | 25 µM and 4.92 µM | 0.254 µM | 25 µM and 47.7 µM |  |  | 0.0269 µM | 25 µM and 32.3 µM |  | 3.31 µM and 1.85 µM |  | 0.608 µM | 0.0849 µM | 25 µM and > 100 µM |  | 0.733 µM | 1.11 µM | 25 µM and > 100 µM |  | 0.157 µM
